Earlier results on one compound are cited in patent US20240269079A1, “MELATONIN FORMULATION IN SOLID DOSAGE FORM” (AGB-Pharma AB, priority 2021, published 2024).

For series [1] the following is noted: after administration.

As to `COc1ccc2[nH]cc(CCNC(C)=O)c2c1` [melatonin, N-acetyl-5-methoxytryptamine], the “Solubility in aqueous solutions” value was “low solubility”. The “Time for blood levels to return to normal daytime levels” value in series [1] is 6 to 8 h.
